Columns and labels:
Assay in all cases: relative viability (nuclei count vs DMSO), 5 days (fraction); higher = more cells survive
[1] = compound: O=C(CCCCCCNC(=O)c1cnc(N(c2ccccc2)c2ccccc2)nc1)NO [Ricolinostat] + C[C@@H](Oc1cc(-c2cnn(C3CCNCC3)c2)cnc1N)c1c(Cl)ccc(F)c1Cl [Crizotinib] (partner 1 µM)
Method in brief: (§1)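 Lung cancer cell lines in 1536-well plates were dosed by pin tool the day after seeding, either with one drug alone or with a fixed anchor-drug dose plus five library-drug doses (not always all listed) in √10 steps. After 5 days, cells were fixed and their nuclei stained in one step (final 0.05% Triton X-100, 1% formaldehyde, 1 ug/ml Hoechst), then counted on 4× images. Relative viability is the nuclei count in treated wells divided by that in vehicle wells. Values are medians of duplicate plates.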

[2] = compound: CC1=CN2C(=O)C=C(N=C2C(=C1)C(C)NC3=CC=CC=C3)N4CCOCC4 [TGX 221] + O=C(c1cc(Cc2n[nH]c(=O)c3ccccc23)ccc1F)N1CCN(C(=O)C2CC2)CC1 [Olaparib] (partner 8 µM)
Method in brief: as §1

[3] = compound: C1=CC=C(C(=C1)C2=CC=C(C=C2)C3=CSC4=C3C(=C(C(=O)N4)C#N)O)O + CS(=O)(=O)N1CCN(Cc2cc3nc(-c4cccc5[nH]ncc45)nc(N4CCOCC4)c3s2)CC1 [Pictilisib] (partner 1 µM)
Method in brief: as §1

[4] = compound: CC1=CN2C(=O)C=C(N=C2C(=C1)C(C)NC3=CC=CC=C3)N4CCOCC4 [TGX 221] + N=C(N)NC(=N)NCCc1ccccc1 [Phenformin] (partner 250 µM)
Method in brief: as §1

Row | Cell Line | relative viability ([1]; first compound 0.08 µM) | relative viability ([1]; first compound 0.253 µM) | relative viability ([1]; first compound 0.8 µM) | relative viability ([1]; first compound 2.53 µM) | relative viability ([2]; first compound 0.08 µM) | relative viability ([2]; first compound 0.253 µM) | relative viability ([2]; first compound 0.8 µM) | relative viability ([2]; first compound 2.53 µM) | relative viability ([2]; first compound 8 µM) | relative viability ([3]; first compound 0.08 µM) | relative viability ([3]; first compound 0.253 µM) | relative viability ([3]; first compound 0.8 µM) | relative viability ([3]; first compound 2.53 µM) | relative viability ([3]; first compound 8 µM) | relative viability ([4]; first compound 0.08 µM) | relative viability ([4]; first compound 0.253 µM) | relative viability ([4]; first compound 0.8 µM) | relative viability ([4]; first compound 2.53 µM) | relative viability ([4]; first compound 8 µM)
1 | SW 1573 | 0.761 | 0.851 | 0.784 | 0.733 | 0.48 | 0.422 | 0.511 | 0.406 | 0.479 | 0.475 | 0.571 | 0.54 | 0.458 | 0.37 | 0.325 | 0.296 | 0.409 | 0.322 | 0.369
2 | SK-MES-1 | 0.912 | 0.96 | 1.04 | 0.969 | 0.65 | 0.691 | 0.744 | 0.554 | 0.465 | 0.33 | 0.368 | 0.354 | 0.284 | 0.307 | 0.71 | 0.66 | 0.706 | 0.719 | 0.574
3 | HCC-827 | 0.827 | 0.956 | 0.841 | 0.846 | 0.647 | 0.55 | 0.615 | 0.526 | 0.0337 | 1.11 | 1.05 | 0.819 | 0.996 | 0.986 | 0.386 | 0.4 | 0.344 | 0.359 | 0.334
4 | EMC-BAC-2 | 0.697 | 0.698 | 0.695 | 0.681 | 0.463 | 0.453 | 0.526 | 0.418 | 0.472 | 0.526 | 0.516 | 0.562 | 0.544 | 0.477 | 0.528 | 0.508 | 0.506 | 0.499 | 0.519
5 | NCI-H2023 | 0.567 | 0.715 | 0.605 | 0.508 | 0.539 | 0.411 | 0.549 | 0.46 | 0.405 | 0.185 | 0.215 | 0.263 | 0.204 | 0.22 | 0.431 | 0.373 | 0.397 | 0.39 | 0.288
6 | NCI-H1993 | 0.798 | 0.854 | 0.923 | 0.964 | 0.945 | 1.02 | 1.08 | 0.936 | 0.938 | 0.901 | 1.01 | 0.762 | 0.902 | 0.828 | 0.427 | 0.568 | 0.54 | 0.517 | 0.54
7 | COR-L 105 | 0.669 | 0.854 | 0.643 | 0.646 | 0.649 | 0.696 | 0.712 | 0.584 | 0.557 | 0.387 | 0.525 | 0.428 | 0.417 | 0.433 | 0.514 | 0.45 | 0.569 | 0.572 | 0.412
8 | NCI-H596 | 0.967 | 0.963 | 0.977 | 0.959 | 0.662 | 0.675 | 0.746 | 0.744 | 0.572 | 0.178 | 0.407 | 0.395 | 0.373 | 0.378 | 0.726 | 0.753 | 0.852 | 0.678 | 0.874
9 | LK-2 | – | 0.259 | 0.213 | 0.253 | 0.65 | 0.752 | 0.551 | 0.632 | 0.862 | – | – | 0.507 | 0.656 | 0.514 | 0.382 | 0.474 | 0.498 | 0.348 | 0.567
10 | NCI-H650 | – | 0.811 | 0.529 | 0.63 | 0.409 | 0.359 | 0.371 | 0.348 | 0.334 | 0.978 | 0.975 | 0.841 | 0.86 | 0.91 | 0.433 | 0.461 | 0.404 | 0.417 | 0.439
11 | NCI-H520 | – | 0.667 | 0.707 | 0.782 | 0.329 | 0.256 | 0.262 | 0.22 | 0.247 | 0.185 | 0.277 | 0.323 | 0.319 | 0.295 | 0.469 | 0.352 | 0.355 | 0.379 | 0.315
12 | ABC-1 | 1.01 | 1.16 | 0.836 | 0.705 | 0.8 | 0.86 | 0.908 | 0.781 | 0.876 | 0.678 | 0.881 | 0.949 | 0.59 | 0.548 | 0.228 | 0.228 | 0.19 | 0.217 | 0.253
13 | NCI-H322M | – | 0.913 | 0.818 | 0.751 | 0.699 | 0.701 | 0.876 | 0.716 | 0.681 | 0.511 | 0.495 | 0.494 | 0.477 | 0.499 | 0.761 | 0.735 | 0.715 | 0.758 | 0.682
14 | HCC-78 | – | 0.288 | 0.279 | 0.25 | 0.801 | 0.69 | 0.753 | 0.618 | 0.623 | 0.169 | 0.286 | 0.205 | 0.192 | 0.196 | 0.675 | 0.641 | 0.533 | 0.558 | 0.604
15 | NCI-H2228 | 0.408 | 0.475 | 0.546 | 0.549 | 0.557 | 0.529 | 0.471 | 0.532 | 0.541 | 0.326 | 0.4 | 0.479 | 0.365 | 0.344 | 0.377 | 0.317 | 0.256 | 0.312 | 0.258
16 | NCI-H2009 | 1.02 | 1.04 | 0.938 | 0.888 | 0.685 | 0.746 | 0.69 | 0.639 | 0.537 | 0.893 | 0.829 | 0.771 | 0.84 | 0.787 | 0.476 | 0.506 | 0.487 | 0.492 | 0.407
17 | LXF-289 | 0.804 | 0.852 | 0.804 | 0.719 | 1.02 | 1.03 | 1.09 | 1.03 | 1.11 | 0.677 | 0.831 | 0.781 | 0.81 | 0.779 | 0.496 | 0.479 | 0.546 | 0.458 | 0.538

Source: the supplement of paper PMC10307832
